Source: ChEMBL document CHEMBL1150235, “Parnapimarol and nepetaparnone from Nepeta parnassica” (2008)
The source made the active and inactive calls. No cut-off for these calls is given here.

Assays:
[1] = tested on: Culex pipiens molestus; test: Insecticidal activity against Culex pipiens molestus larvae at 10 to 50 mg/L after 6 to 24 hrs; type: functional, organism-based
[2] = tested on: Leptothorax; test: Insecticidal activity against Leptothorax sp. assessed as number of dead ants at 0.5 mg after 6 to 24 hrs relative to control; type: functional

SMILES	Activity [1]	Activity [2]
CC1=C2CC[C@H](C)[C@@]23C(=O)O[C@H]1[C@@]12C(=O)O[C@H]3C(C)=C1CC[C@@H]2C [NEPETANUDONE]	inactive	45%
CC1=C2CC[C@@H](C)[C@@]23C(=O)O[C@H]1[C@@]12C(=O)O[C@H]3C(C)=C1CC[C@@H]2C [NEPETAPARNONE]	inactive	55%
C=C[C@]1(C)CCC2=C(CC[C@H]3[C@](C)(COC(=O)C(C)CC)CC[C@H](O)[C@]23C)[C@@H]1OC(C)=O (stereo partly specified) [PARNAPIMAROL]	inactive	31%
